In patent US20230322721A1 (OSLO UNIVERSITETSSYKEHUS HF, priority 2020, published 2023):
Where a name gives a salt, the structure may show the parent alone. Read-outs that look alike come from different tables or passages of the source.

Experiments:
[1] = biological target: TNKS2 (Homo sapiens (Human), UniProt Q9H2K2); assay: Biochemical IC50 TNKS2
Excerpt: (§1) XLfit (idbs) was used to determine the IC50-values in inhibition experiments. The following formula was chosen to fit the data points (Langmuir Binding Isotherm): fit=((A+(B*x))+(((C−B)*(1−exp((−1*D)*x)))/D)), res=(y−fit).

[2] = tested on: HEK293; assay: Cellular IC50 HEK293; type: cell-based
Excerpt: as §1

[3] = Metabolic stability in mouse liver microsomes (MLM); type: in vitro ADME; conditions: for microsomal CLint at 1 μM / half-life at 1 μM: pH 7.4, 1 μM compound; for half-life at 1 μM: read-out: MLM t1/2 average
Description: (§2) Metabolic stability was investigated in mouse liver microsomes (MLM) and in human liver microsomes (HLM): […] Incubations were performed at 37° C. Control incubations with reference substances were included for each experiment. […] After the last time point, the quench plates were mixed thoroughly and centrifuged for 15 minutes at 3700 rpm and 10° C. (Eppendorf 5804R). The supernatant was transferred to new 96 well plates and subjected to LCMS analysis. The disappearance of the parent compound was determined.

[4] = Metabolic stability in human liver microsomes (HLM); type: in vitro ADME; conditions: for microsomal CLint at 1 μM / half-life at 1 μM: pH 7.4, 1 μM compound; for half-life at 1 μM: read-out: HLM t1/2 average
Description: as §2

[5] = read-out: Biochemical IC50 TNKS2
[6] = Homo sapiens, HEK293; read-out: Cellular IC50 HEK293
[7] = 0.5 mg/ml microsomal protein, 37° C.
[8] = Homo sapiens, HEK293, read-out: Cellular IC50 HEK293
[9] = 1 μM compound, 0.5 mg/ml microsomal protein, 37° C.

Chain of TNKS2 (Q9H2K2 whole entry): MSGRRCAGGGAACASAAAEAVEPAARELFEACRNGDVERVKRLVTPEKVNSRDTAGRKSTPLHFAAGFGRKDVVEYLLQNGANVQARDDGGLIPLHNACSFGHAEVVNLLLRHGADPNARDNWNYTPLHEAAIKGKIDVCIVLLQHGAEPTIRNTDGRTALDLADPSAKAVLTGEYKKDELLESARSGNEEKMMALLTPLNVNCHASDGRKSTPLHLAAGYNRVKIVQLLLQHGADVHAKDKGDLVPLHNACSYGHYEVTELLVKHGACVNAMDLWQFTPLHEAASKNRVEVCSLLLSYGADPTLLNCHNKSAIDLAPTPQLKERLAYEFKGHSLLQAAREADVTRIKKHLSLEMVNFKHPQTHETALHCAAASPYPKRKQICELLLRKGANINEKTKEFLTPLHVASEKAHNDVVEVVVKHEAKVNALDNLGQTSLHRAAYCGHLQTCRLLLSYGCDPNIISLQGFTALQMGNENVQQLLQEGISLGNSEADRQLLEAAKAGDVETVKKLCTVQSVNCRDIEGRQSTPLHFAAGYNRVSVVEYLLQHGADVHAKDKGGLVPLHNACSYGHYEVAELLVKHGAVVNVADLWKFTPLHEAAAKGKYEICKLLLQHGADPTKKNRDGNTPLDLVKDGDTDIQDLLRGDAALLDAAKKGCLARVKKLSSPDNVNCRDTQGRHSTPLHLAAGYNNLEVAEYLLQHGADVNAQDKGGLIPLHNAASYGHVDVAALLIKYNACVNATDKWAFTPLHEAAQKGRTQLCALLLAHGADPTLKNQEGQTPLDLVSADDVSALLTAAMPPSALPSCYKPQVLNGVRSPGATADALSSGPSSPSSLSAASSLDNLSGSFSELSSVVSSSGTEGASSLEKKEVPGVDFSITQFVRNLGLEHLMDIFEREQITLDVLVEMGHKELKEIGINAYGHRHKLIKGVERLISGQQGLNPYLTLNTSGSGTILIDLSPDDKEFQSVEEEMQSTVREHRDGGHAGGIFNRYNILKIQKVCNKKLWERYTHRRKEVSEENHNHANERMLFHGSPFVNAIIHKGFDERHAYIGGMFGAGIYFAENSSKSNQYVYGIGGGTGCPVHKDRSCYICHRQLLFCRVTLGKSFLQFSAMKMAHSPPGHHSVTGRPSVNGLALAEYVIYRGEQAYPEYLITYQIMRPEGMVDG

| microsomal CLint at 1 μM [3, 7] [µL/min/mg] | half-life at 1 μM [3, 7] [h] | microsomal CLint at 1 μM [4, 7] [µL/min/mg] | half-life at 1 μM [4, 7] [h] | Structure (SMILES) | IC50 [1, 5] [nM] | IC50 [2, 6] [nM] | IC50 [2, 8] [nM] | IC50 ([2]; HEK293; read-out: Cellular IC50 HEK293) [nM] | MLM Clint average [3, 9] [μl/min/mg protein] | MLM t1/2 average [3, 9] [h] | HLM Clint average [4, 9] [μl/min/mg protein] | HLM t1/2 average [4, 9] [h] | IC50 [1] [nM] | IC50 ([2]; Homo sapiens, HEK293, read-out: Cellular IC50 HEK 293) [nM] | clearance in MLM (in words) [3] | clearance in HLM (in words) [4] |
| --- | --- | --- | --- | --- | --- | --- | --- | --- | --- | --- | --- | --- | --- | --- | --- | --- |
| 72 | 0.317 | 45 | 0.517 | CCOc1ccc(-c2nnc([C@H]3C[C@H](NC(=O)c4cccc5ncc(O)nc45)C3)n2-c2ccccc2F)nc1 [Example 1, N-((1R,3r)-3-(5-(5-ethoxypyridin-2-yl)-4-(2-fluorophenyl)-4H-1,2,4-triazol-3-yl)cyclobutyl)-3-hydroxyquinoxaline-5-carboxamide] | 36 | 220 |  |  |  |  |  |  |  |  |  |  |
| 7 | > 1.5 | 17 | 1.32 | CCOc1ccc(-c2nnc([C@H]3C[C@H](NC(=O)c4cccc5nc(O)cnc45)C3)n2-c2ccccc2F)nc1 [Example 2, Dihydrochloride] | 1.5 | 1.1 |  |  |  |  |  |  |  |  |  |  |
| 9 | > 1.5 | 5 | > 1.5 | CCOc1ccc(-c2nnc([C@H]3C[C@H](NC(=O)c4cccc5nc(O)c(O)nc45)C3)n2-c2ccccc2F)nc1 [Example 3, N-((1R,3r)-3-(5-(5-ethoxypyridin-2-yl)-4-(2-fluorophenyl)-4H-1,2,4-triazol-3-yl)cyclobutyl)-2,3-dihydroxyquinoxaline-5-carboxamide] | 71 | 1250 |  |  |  |  |  |  |  |  |  |  |
|  |  |  |  | CCOc1ccc(-c2nnc([C@H]3C[C@H](NC(=O)c4cccc5nccnc45)C3)n2-c2ccccc2F)[n+]([O-])c1 [Example 5, 5-ethoxy-2-(4-(2-fluorophenyl)-5-((1r,3R)-3-(quinoxaline-5-carboxamido)cyclobutyl)-4H-1,2,4-triazol-3-yl)pyridine 1-oxide] | 1.3 |  |  | 0.75 | 15 | >1.5 | 8 | >1.5 |  |  |  |  |
|  |  |  |  | CCOc1ccc(-c2nnc([C@H]3C[C@H](NC(=O)c4cc[n+]([O-])c5cc(OC)cnc45)C3)n2-c2ccccc2F)nc1 [Example 28, 4-((trans-3-(5-(5-ethoxypyridin-2-yl)-4-(2-fluorophenyl)-4H-1,2,4-triazol-3-yl)cyclobutyl)carbamoyl)-7-methoxy-1,5-naphthyridine 1-oxide] |  |  | 1.2 |  |  |  |  |  | 3.5 | 1.2 |  |  |

| Structure (SMILES) | microsomal CLint at 1 μM [3, 7] [µL/min/mg] | half-life at 1 μM [3, 7] [h] | microsomal CLint at 1 μM [4, 7] [µL/min/mg] | half-life at 1 μM [4, 7] [h] | IC50 [1, 5] [nM] | IC50 [2, 6] [nM] | IC50 [2, 8] [nM] | IC50 ([2]; HEK293; read-out: Cellular IC50 HEK293) [nM] | MLM Clint average [3, 9] [μl/min/mg protein] | MLM t1/2 average [3, 9] [h] | HLM Clint average [4, 9] [μl/min/mg protein] | HLM t1/2 average [4, 9] [h] | IC50 [1] [nM] | IC50 ([2]; Homo sapiens, HEK293, read-out: Cellular IC50 HEK 293) [nM] | clearance in MLM (in words) [3] | clearance in HLM (in words) [4] |
| --- | --- | --- | --- | --- | --- | --- | --- | --- | --- | --- | --- | --- | --- | --- | --- | --- |
| CCOc1ccc(-c2nnc([C@H]3C[C@H](NC(=O)c4cccc5c4ncc[n+]5[O-])C3)n2-c2ccccc2F)nc1 [Example 4, 5-(((1R,3r)-3-(5-(5-ethoxypyridin-2-yl)-4-(2-fluorophenyl)-4H-1,2,4-triazol-3-yl)cyclobutyl)carbamoyl)quinoxaline 1-oxide] | 19 | 1.18 | 5 | > 1.5 | 1.6 |  | 2.5 |  |  |  |  |  |  |  |  |  |
| CCOc1ccc(-c2nnc([C@H]3C[C@H](NC(=O)c4cccc5nccnc45)C3)n2-c2ccccc2F)nc1 [Example 154 of WO 2019/243822, reference compound] | 81 | 0.283 | 40 | 0.583 | 1.8 |  | 0.53 |  |  |  |  |  |  |  | high clearance | moderate clearance |
